Assay results reported in publication PMC7997032, “Organic synthesis and anti-influenza A virus activity of cyclobakuchiols A, B, C, and D” (PLoS ONE, 2021).
“And” between values parts separate entries of the source, which are not always exact repeats. Equal values may be shown once.

Assays:
[1] = system: A/PR/8/34 virus; assay: Influenza A viral growth assay (viral titer of culture media); format: cell-based, influenza A H1N1 virus; parameters: viral titer of culture media, individual replicate / viral titer of culture media, ave: unit not given here; conditions: A/PR/8/34 (PR8), 12.5uM; for viral titer of culture media, ave: average of #1-3 exp (n=9); for viral titer of culture media, individual replicate: replicates of #1-3 exp
[2] = system: A/WSN/33 virus; assay: as above; format: cell-based, influenza A H1N1 virus; conditions: A/WSN/33 (WSN), 12.5uM; for viral titer of culture media, ave: average of #1-3 exp (n=9); for viral titer of culture media, individual replicate: replicates of #1-3 exp
[3] = system: MDCK cells; assay: MTT assay (cytotoxicity against MDCK cells); format: cell-based, canine; conditions: MDCK cells; for MTT, DMSO as 100 (DMSOを 100として), ave / MTT 72h AVE (DMSO = 100): 72h; for MTT, DMSO as 100 (DMSOを 100として), ave: mean of 5 wells (200409 #1 and #3); for MTT 72h AVE (DMSO = 100): summary AVE; for MTT 24h, AVE (DMSO as 100) / MTT 24h, 570-650nm, DMSO as 100, ave: mean of 5 wells from 3 experiments; for MTT 24h, AVE (DMSO as 100): relative to DMSO = 100; for MTT 24h, 570-650nm, DMSO as 100, single replicate: individual wells (200331; 200403 #2 1,2; 200403 #3 1,2); for 570-650nm (MTT absorbance, single wells) / 570-650nm ave (mean MTT absorbance of 5 wells) / MTT absorbance with DMSO as 100 (DMSOを 100として), single wells: MTT 72h; for 570-650nm (MTT absorbance, single wells): experiments #1-#3, duplicate wells; for MTT absorbance with DMSO as 100 (DMSOを 100として), single wells: relative to mean of DMSO
Experimental: 1–5 (0.8–100 μM) were prepared in DMSO (100 μM, 1%; 50 μM, 0.5%; 25 μM, 0.25%; 12.5 μM, 0.125%; 6.3 μM, 0.063%; 3.1 μM, 0.031%; 1.6 μM, 0.016%; 0.8 μM, 0.008%) and mixed with infection medium (DMEM supplemented with 1% bovine serum albumin (BSA; Wako), P/S and 4 mM L-glutamine). The resulting mixture was added to the cells and incubated for 24 or 72 h at 37°C in the presence of 5% CO2. After incubation, cell viability was determined using an MTT cell count kit (Nacalai Tesque) according to the manufacturer’s instructions, as previously described.

C=C[C@]1(C)CC[C@H](C(=C)C)[C@@H](c2ccc(O)cc2)C1 [(1R,3R,4R)-cyclobakuchiol A]
viral titer of culture media, ave ([1]; 12h): 31111.1
viral titer of culture media, individual replicate ([1]; 12h): 90000 and 60000 and 30000 (2×) and 10000 (3×) and 20000 (2×)
viral titer of culture media, ave ([1]; 24h): 25555.6
viral titer of culture media, individual replicate ([1]; 24h): 40000 and 30000 (3×) and 10000 (3×) and 50000 and 20000
viral titer of culture media, ave ([1]; 48h): 28888.9
viral titer of culture media, individual replicate ([1]; 48h): 50000 (2×) and 30000 (2×) and 10000 (2×) and 20000 (2×) and 40000
viral titer of culture media, ave ([1]; 72h): 20000
viral titer of culture media, individual replicate ([1]; 72h): 10000 (6×) and 50000 and 30000 and 40000
viral titer of culture media, ave ([2]; 12h): 10300
viral titer of culture media, individual replicate ([2]; 12h): 300 and 1400 and 1000 and 40000 and 10000 (5×)
viral titer of culture media, ave ([2]; 24h): 22944444
viral titer of culture media, individual replicate ([2]; 24h): 2600000 and 3900000 and 1000000 and 60000000 and 10000000 and 9000000 and 20000000 and 30000000 and 70000000
viral titer of culture media, ave ([2]; 48h): 177111111
viral titer of culture media, individual replicate ([2]; 48h): 50000000 and 54000000 and 10000000 and 210000000 (2×) and 230000000 and 190000000 and 380000000 and 260000000
viral titer of culture media, ave ([2]; 72h): 106555556
viral titer of culture media, individual replicate ([2]; 72h): 10000000 (2×) and 7000000 and 200000000 and 150000000 (2×) and 60000000 and 330000000 and 42000000

C=C[C@]1(C)CC[C@@H](C(=C)C)[C@H](c2ccc(O)cc2)C1 [(1R,3S,4S)-cyclobakuchiol B]
viral titer of culture media, ave ([1]; 12h): 24444.4
viral titer of culture media, individual replicate ([1]; 12h): 70000 and 30000 (2×) and 10000 (3×) and 20000 (3×)
viral titer of culture media, ave ([1]; 24h): 30000
viral titer of culture media, individual replicate ([1]; 24h): 60000 and 50000 (2×) and 20000 (3×) and 10000 (2×) and 30000
viral titer of culture media, ave ([1]; 48h): 41111.1
viral titer of culture media, individual replicate ([1]; 48h): 40000 (3×) and 30000 (2×) and 80000 (2×) and 20000 and 10000
viral titer of culture media, ave ([1]; 72h): 58888.9
viral titer of culture media, individual replicate ([1]; 72h): 30000 (2×) and 40000 and 20000 and 10000 (2×) and 250000 and 80000 and 60000
viral titer of culture media, ave ([2]; 12h): 12633.3
viral titer of culture media, individual replicate ([2]; 12h): 1000 (2×) and 1700 and 10000 (3×) and 20000 (2×) and 40000
viral titer of culture media, ave ([2]; 24h): 25455556
viral titer of culture media, individual replicate ([2]; 24h): 2000000 (2×) and 300000 and 80000000 and 30000000 and 16000000 and 40000000 and 8800000 and 50000000
viral titer of culture media, ave ([2]; 48h): 275666667
viral titer of culture media, individual replicate ([2]; 48h): 100000000 and 160000000 and 61000000 and 430000000 and 420000000 and 440000000 and 180000000 and 300000000 and 390000000
viral titer of culture media, ave ([2]; 72h): 208055556
viral titer of culture media, individual replicate ([2]; 72h): 35000000 and 20000000 and 27500000 and 320000000 and 390000000 and 350000000 and 250000000 and 280000000 and 200000000

C=C[C@@](C)(/C=C/c1ccc(O)cc1)CCC=C(C)C [天然型バクチオール]
viral titer of culture media, individual replicate ([1]; 12h): 10000 (4×) and 30000 (3×) and 40000 (2×)
viral titer of culture media, ave ([1]; 24h): 22222.2
viral titer of culture media, individual replicate ([1]; 24h): 50000 and 10000 (5×) and 40000 (2×) and 20000
viral titer of culture media, ave ([1]; 48h): 25555.6
viral titer of culture media, individual replicate ([1]; 48h): 50000 and 20000 and 40000 and 10000 (3×) and 30000 (3×)
viral titer of culture media, ave ([1]; 72h): 31111.1
viral titer of culture media, individual replicate ([1]; 72h): 30000 (2×) and 20000 (2×) and 40000 (2×) and 10000 (2×) and 80000
viral titer of culture media, individual replicate ([2]; 12h): 900 and 300 and 1100 and 30000 (2×) and 10000 (3×) and 50000
viral titer of culture media, ave ([2]; 24h): 14411111
viral titer of culture media, individual replicate ([2]; 24h): 300000 and 1500000 and 900000 and 7000000 and 16000000 and 9000000 and 20000000 and 5000000 and 70000000
viral titer of culture media, ave ([2]; 48h): 220000000
viral titer of culture media, individual replicate ([2]; 48h): 50000000 and 74000000 and 26000000 and 320000000 and 280000000 and 330000000 and 260000000 and 290000000 and 350000000
viral titer of culture media, ave ([2]; 72h): 150111111
viral titer of culture media, individual replicate ([2]; 72h): 10000000 and 29000000 and 52000000 and 150000000 and 240000000 and 210000000 and 200000000 (2×) and 260000000

C=C[C@]1(C)CC[C@@H](C(C)(C)O)[C@H](c2ccc(O)cc2)C1 [Cyclo. D]
MTT, DMSO as 100 (DMSOを 100として), ave ([3]; 0.78uM): 98.8071
MTT, DMSO as 100 (DMSOを 100として), ave ([3]; 1.56uM): 117.006
MTT, DMSO as 100 (DMSOを 100として), ave ([3]; 3.125uM): 147.657
MTT 72h AVE (DMSO = 100) ([3]; 6.25 (uM)): 128.371
MTT 72h AVE (DMSO = 100) ([3]; 12.5 (uM)): 127.934
MTT 72h AVE (DMSO = 100) ([3]; 25 (uM)): 145.717
MTT 72h AVE (DMSO = 100) ([3]; 50 (uM)): 126.261
MTT 72h AVE (DMSO = 100) ([3]; 100 (uM)): 126.655
MTT 24h, AVE (DMSO as 100) ([3]; 0.78 uM): 97.8994
MTT 24h, AVE (DMSO as 100) ([3]; 1.56 uM): 96.8321
MTT 24h, 570-650nm, DMSO as 100, single replicate ([3]; 3.125uM): 84.6917 and 82.6734 and 92.4491 and 113.857 and 84.268
MTT 24h, 570-650nm, DMSO as 100, ave ([3]; 3.125uM): 91.5878
MTT 24h, 570-650nm, DMSO as 100, single replicate ([3]; 6.25uM): 85.6335 and 89.7131 and 106.9 and 111.896 and 88.988
MTT 24h, 570-650nm, DMSO as 100, ave ([3]; 6.25uM): 96.6263
MTT 24h, 570-650nm, DMSO as 100, single replicate ([3]; 12.5uM): 81.4488 and 91.9219 and 102.896 and 113.782 and 96.5227
MTT 24h, 570-650nm, DMSO as 100, ave ([3]; 12.5uM): 97.3142
MTT 24h, 570-650nm, DMSO as 100, single replicate ([3]; 25uM): 77.2963 and 96.4082 and 113.294 and 115.224 and 87.3126
MTT 24h, 570-650nm, DMSO as 100, ave ([3]; 25uM): 97.9071
MTT 24h, 570-650nm, DMSO as 100, single replicate ([3]; 50uM): 91.2134 and 100.963 and 94.7794 and 115.361 and 101.24
MTT 24h, 570-650nm, DMSO as 100, ave ([3]; 50uM): 100.712
MTT 24h, 570-650nm, DMSO as 100, single replicate ([3]; 100uM): 94.6456 and 103.228 and 107.83 and 131.616 and 116.582
MTT 24h, 570-650nm, DMSO as 100, ave ([3]; 100uM): 110.78
570-650nm (MTT absorbance, single wells) ([3]; 0.78uM): 0.4378 and 0.7486 and 0.8741 and 0.5119 and 0.7887 and 0.8621
570-650nm (MTT absorbance, single wells) ([3]; 3.13uM (3.125uM in summary block)): 0.9735 and 1.011 and 0.8858 and 1.0444 and 0.9175 and 1.1144
570-650nm ave (mean MTT absorbance of 5 wells) ([3]; 6.25uM): 0.8781
MTT absorbance with DMSO as 100 (DMSOを 100として), single wells ([3]; 6.25uM): 79.8684 and 128.626 and 158.904 and 136.433 and 138.026
570-650nm ave (mean MTT absorbance of 5 wells) ([3]; 12.5uM): 1.0183
570-650nm (MTT absorbance, single wells) ([3]; 12.5uM): 0.9745 and 1.0068 and 0.9175 and 1.0063 and 1.0002 and 1.1607
MTT absorbance with DMSO as 100 (DMSOを 100として), single wells ([3]; 12.5uM): 126.426 and 115.27 and 145.824 and 125.66 and 126.489
570-650nm ave (mean MTT absorbance of 5 wells) ([3]; 25uM): 1.096
570-650nm (MTT absorbance, single wells) ([3]; 25uM): 1.0789 and 1.1027 and 0.9947 and 1.0822 and 1.1213 and 1.1788
MTT absorbance with DMSO as 100 (DMSOを 100として), single wells ([3]; 25uM): 143.89 and 132.256 and 156.734 and 149.089 and 146.616
570-650nm ave (mean MTT absorbance of 5 wells) ([3]; 50uM): 1.152
570-650nm (MTT absorbance, single wells) ([3]; 50uM): 1.148 and 1.1434 and 1.0891 and 1.1437 and 1.0821 and 1.3031
MTT absorbance with DMSO as 100 (DMSOを 100として), single wells ([3]; 50uM): 125.321 and 119.338 and 142.787 and 118.571 and 125.288
570-650nm ave (mean MTT absorbance of 5 wells) ([3]; 100uM): 1.192
570-650nm (MTT absorbance, single wells) ([3]; 100uM): 1.3579 and 1.2781 and 1.2394 and 0.9368 and 1.1592 and 1.3488
MTT absorbance with DMSO as 100 (DMSOを 100として), single wells ([3]; 100uM): 99.5008 and 131.641 and 143.261 and 123.123 and 135.751
